Experimental data reported in PubChem BioAssay (NCI).
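Protocol summary: plate cells (96-well), add compound at 5 concentrations, incubate 48 h, interpolate endpoints linearly. GI50: concentration for 50% inhibition of growth. TGI marks complete inhibition of growth.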

How the values were obtained:
Assay in all cases: inhibition of tumour cell growth, NCI panel, 48 h
SNB-75 CNS = tested on: SNB-75 CNS
HCT-116 colon = tested on: HCT-116 colon
U251 CNS = tested on: U251 CNS
KM12 colon = tested on: KM12 colon
M14 melanoma = tested on: M14 melanoma
SF-539 CNS = tested on: SF-539 CNS
SF-268 CNS = tested on: SF-268 CNS
UO-31 renal = tested on: UO-31 renal
RXF 393 renal = tested on: RXF 393 renal
COLO 205 colon = tested on: COLO 205 colon
NCI-H226 lung = tested on: NCI-H226 lung
EKVX NSCLC = tested on: EKVX NSCLC
SN12C renal = tested on: SN12C renal
OVCAR-5 ovarian = tested on: OVCAR-5 ovarian
IGROV1 ovarian = tested on: IGROV1 ovarian
MDA-MB-468 breast = tested on: MDA-MB-468 breast
A498 renal = tested on: A498 renal
DU-145 prostate = tested on: DU-145 prostate
K-562 leukemia = tested on: K-562 leukemia
SK-OV-3 ovarian = tested on: SK-OV-3 ovarian
UACC-257 melanoma = tested on: UACC-257 melanoma
RPMI-8226 leukemia = tested on: RPMI-8226 leukemia
786-0 renal = tested on: 786-0 renal
SNB-19 CNS = tested on: SNB-19 CNS
CAKI-1 renal = tested on: CAKI-1 renal
UACC-62 melanoma = tested on: UACC-62 melanoma
MCF7 breast = tested on: MCF7 breast
SK-MEL-28 melanoma = tested on: SK-MEL-28 melanoma
BT-549 breast = tested on: BT-549 breast

C=CC[Se]C(=O)c1cncc(C(=O)[Se]CC=C)c1
GI50 (SNB-75 CNS): 1030 nM | TGI (SNB-75 CNS): 2440 nM | GI50 (HCT-116 colon): 1310 nM | TGI (HCT-116 colon): 2820 nM | GI50 (U251 CNS): 782 nM | TGI (U251 CNS): 2220 nM | GI50 (KM12 colon): 1340 nM | TGI (KM12 colon): 2760 nM | GI50 (M14 melanoma): 1810 nM | TGI (M14 melanoma): 3310 nM | GI50 (SF-539 CNS): 1360 nM | TGI (SF-539 CNS): 2650 nM | GI50 (SF-268 CNS): 2230 nM | TGI (SF-268 CNS): 6820 nM | GI50 (UO-31 renal): 1650 nM | TGI (UO-31 renal): 3030 nM | GI50 (RXF 393 renal): 2170 nM | TGI (RXF 393 renal): 5180 nM | GI50 (COLO 205 colon): 3650 nM | TGI (COLO 205 colon): 10600 nM | GI50 (NCI-H226 lung): 2880 nM | TGI (NCI-H226 lung): 10500 nM | GI50 (EKVX NSCLC): 1460 nM | TGI (EKVX NSCLC): 3080 nM | GI50 (SN12C renal): 628 nM | TGI (SN12C renal): 1920 nM | GI50 (OVCAR-5 ovarian): 1550 nM | TGI (OVCAR-5 ovarian): 3160 nM | GI50 (IGROV1 ovarian): 544 nM | TGI (IGROV1 ovarian): 1800 nM | GI50 (MDA-MB-468 breast): 1800 nM | TGI (MDA-MB-468 breast): 3540 nM | GI50 (A498 renal): 3570 nM | TGI (A498 renal): 47800 nM | GI50 (DU-145 prostate): 2220 nM | TGI (DU-145 prostate): 4730 nM | GI50 (K-562 leukemia): 3150 nM | TGI (K-562 leukemia): 10700 nM | GI50 (SK-OV-3 ovarian): 1430 nM | TGI (SK-OV-3 ovarian): 3030 nM | GI50 (UACC-257 melanoma): 1790 nM | TGI (UACC-257 melanoma): 3350 nM | GI50 (RPMI-8226 leukemia): 2450 nM | TGI (RPMI-8226 leukemia): 6380 nM | GI50 (786-0 renal): 1850 nM | TGI (786-0 renal): 3270 nM | GI50 (SNB-19 CNS): 386 nM | TGI (SNB-19 CNS): 1500 nM | GI50 (CAKI-1 renal): 1800 nM | TGI (CAKI-1 renal): 3460 nM | GI50 (UACC-62 melanoma): 1680 nM | TGI (UACC-62 melanoma): 3720 nM | GI50 (MCF7 breast): 2210 nM | TGI (MCF7 breast): 5550 nM | GI50 (SK-MEL-28 melanoma): 1710 nM | TGI (SK-MEL-28 melanoma): 3240 nM | GI50 (BT-549 breast): 1740 nM | TGI (BT-549 breast): 3210 nM
